# Reference: US20170368082A1, “FORMULATIONS OF BRINCIDOFOVIR” (priority 2016, published 2017)
# Experiment: Tissue distribution by quantitative whole-body autoradiography (QWBA)
# Assay type: in vivo, male Sprague Dawley and Long-Evans rats
# Conditions: PO 15 mg/kg, Group 7
# Description: The study utilized 4 groups of male SD rats (albino), and 3 groups of male LE rats (pigmented); a total of 39 rats. All animals were obtained from Hilltop Lab Animals, Inc. (Scottdale, Pa.). […] Rats in Group 5 were administered a single 2-h IV infusion of [^14C]brincidofovir at a target dose of 2 mg/kg. […] Three dosing formulations (one for high dose IV, one for low dose IV, and one for PO dose) were prepared at QPS on the day of dosing. The IV formulation for Groups 1, 2, 3, and 4 contained a vehicle of 10 mM sodium phosphate buffer in 5% dextrose solution at pH 8.0(±0.1).
# Each animal, at their respective termination time points, was euthanized for QWBA analysis immediately after blood collection. One rat per time point per Group was euthanized as listed below.
# The blood samples were maintained on wet ice (approximately 4° C.) and then centrifuged to obtain plasma within 1 h of the blood collection time. Centrifuge settings were recorded in the study notebook. Duplicate aliquots of plasma (0.050 mL) were analyzed for radioactivity using direct counting by LSC, and residual plasma was stored at approximately −70° C. and was saved for possible future analysis under a separate study protocol. Residual red blood cells were discarded as radioactive waste.
# The pinna, distal limbs, hair, and tail were removed from each frozen carcass and each frozen carcass was embedded in an aqueous suspension of approximately 2% (w/v) carboxymethylcellulose and frozen into a block. The blocks were stored at approximately −20° C. prior to sectioning. Each blocked carcass was mounted on the object stage of a cryomicrotome (Leica CM3600 Cryomacrocut, Nussloch, Germany and Vibratome 9800, St. Louis, Mo.) maintained at approximately −20° C. and internal standards (3), which were plasma fortified with [^14C]-glucose at one concentration (approximately 0.05 μCi/mL), were placed into the frozen blocks, prior to sectioning, and were used for section thickness quality control. A number of whole-body sections (approximately 40 μm thick) were taken in the sagittal plane at various levels of interest using a whole-body cryomicrotome set at −20° C. Sagittal sections (20-50 μm thick) of frozen carcasses were exposed to phosphor imaging plates. Regions of images in tissues were converted to concentrations using standards. All of the major tissues, organs, and biological fluids were represented.
# Tissue concentration data was determined for the following tissues and/or contents: adipose (brown and white), adrenal gland, bile (in duct), blood (cardiac), bone, bone marrow, brain (cerebrum, cerebellum, medulla), cecum (and contents), large intestine (and contents), epididymis, esophagus, eye (uvea and lens), Harderian gland, heart, kidney (cortex and medulla), liver, lung, lymph node, pancreas, pituitary gland, prostate gland, salivary gland, seminal vesicles, skeletal muscle, skin (pigmented and non-pigmented), small intestine (and contents), stomach (gastric mucosa and contents), spleen, spinal cord, testis, thymus, thyroid, and urinary bladder (and contents).
# The imaging plate and sections were placed in light-tight exposure cassettes, in a copper-lined lead safe, for a 4-day exposure at room temperature. […] Quantification was performed by image densitometry using MCD image analysis software (v. 7.0, Interfocus Imaging Ltd) and a standard curve constructed from the integrated response [i.e., Molecular Dynamics Counts per square millimeter (MDC/mm^2)] and the nominal concentrations of the ^14C-calibration standards. The concentrations of radioactivity were expressed as the μg equivalents of [^14C]brincidofovir per gram sample (μg equiv/g). A lower limit of quantification (LLOQ) was applied to the data (See section 6.7.4).
# Tissue concentrations that fell below the LLOQ were identified as being below the quantification limit (BQL). Tissue areas that were not visualized on autoradiographic images were identified as no sample (NS) and reported as BQL.
smiles,measurement,setting,value
CCCCCCCCCCCCCCCCOCCCOP(=O)(O)CO[C@H](CO)Cn1ccc(N)nc1=O [[14C]brincidofovir],AUCall,Adipose (brown),24.3703 μg equiv · h/g
same,AUCinf—obs,Adipose (brown),24.4043 μg equiv · h/g
same,Tmax,Adipose (brown),4 h
same,t1/2,Adipose (brown),233.5 h
same,AUCall,Adipose (white),1.1215 μg equiv · h/g
same,AUCinf—obs,Adipose (white),2.4387 μg equiv · h/g
same,Tmax,Adipose (white),4 h
same,t1/2,"Adipose (white), estimate (footnote a)",17.6 h
same,AUCall,Adrenal Gland,74.5860 μg equiv · h/g
same,AUCinf—obs,Adrenal Gland,58.7136 μg equiv · h/g
same,Tmax,Adrenal Gland,8 h
same,t1/2,Adrenal Gland,43.2 h
same,AUCall,Blood (cardiac),21.9165 μg equiv · h/g
same,AUCinf—obs,Blood (cardiac),22.3146 μg equiv · h/g
same,Tmax,Blood (cardiac),8 h
same,t1/2,"Blood (cardiac), estimate (footnote a)",32.8 h
same,AUCall,Bone Marrow,68.7413 μg equiv · h/g
same,AUCinf—obs,Bone Marrow,50.2191 μg equiv · h/g
same,Tmax,Bone Marrow,8 h
same,t1/2,"Bone Marrow, estimate (footnote a)",96.3 h
same,AUCall,Bone,1.8470 μg equiv · h/g
same,AUCinf—obs,Bone,3.7274 μg equiv · h/g
same,Tmax,Bone,4 h
same,t1/2,"Bone, estimate (footnote a)",53.9 h
same,AUCall,Brain (cerebellum),0.8610 μg equiv · h/g
same,Tmax,Brain (cerebellum),8 h
same,AUCall,Brain (cerebrum),0.7650 μg equiv · h/g
same,Tmax,Brain (cerebrum),8 h
same,AUCall,Brain (medulla),0.5770 μg equiv · h/g
same,Tmax,Brain (medulla),4 h
same,AUCall,Cecum,174.4118 μg equiv · h/g
same,AUCinf—obs,Cecum,142.1970 μg equiv · h/g
same,Tmax,Cecum,8 h
same,t1/2,"Cecum, estimate (footnote a)",69.9 h
same,AUCall,Epididymis,31.1150 μg equiv · h/g
same,AUCinf—obs,Epididymis,22.3936 μg equiv · h/g
same,Tmax,Epididymis,4 h
same,t1/2,"Epididymis, estimate (footnote a)",89.0 h
same,AUCall,Esophagus,27.9015 μg equiv · h/g
same,AUCinf—obs,Esophagus,29.1559 μg equiv · h/g
same,Tmax,Esophagus,4 h
same,t1/2,Esophagus,37.2 h
same,AUCall,Eye (uveal tract),16.2765 μg equiv · h/g
same,AUCinf—obs,Eye (uveal tract),19.8244 μg equiv · h/g
same,Tmax,Eye (uveal tract),8 h
same,t1/2,"Eye (uveal tract), estimate (footnote a)",57.7 h
same,AUCall,Harderian Gland,63.7645 μg equiv · h/g
same,AUCinf—obs,Harderian Gland,50.8931 μg equiv · h/g
same,Tmax,Harderian Gland,8 h
same,t1/2,"Harderian Gland, estimate (footnote a)",151.8 h
same,AUCall,Heart,31.1603 μg equiv · h/g
same,AUCinf—obs,Heart,23.2365 μg equiv · h/g
same,Tmax,Heart,8 h
same,t1/2,"Heart, estimate (footnote a)",110.8 h
same,AUCall,Kidney Cortex,804.4980 μg equiv · h/g
same,AUCinf—obs,Kidney Cortex,822.5076 μg equiv · h/g
same,Tmax,Kidney Cortex,8 h
same,t1/2,"Kidney Cortex, estimate (footnote a)",244.8 h
same,AUCall,Kidney Medulla,342.0130 μg equiv · h/g
same,AUCinf—obs,Kidney Medulla,286.4307 μg equiv · h/g
same,Tmax,Kidney Medulla,8 h
same,t1/2,Kidney Medulla,41.2 h
same,AUCall,Large Intestine,140.3313 μg equiv · h/g
same,AUCinf—obs,Large Intestine,123.4302 μg equiv · h/g
same,Tmax,Large Intestine,8 h
same,t1/2,"Large Intestine, estimate (footnote a)",37.6 h
same,AUCall,Liver,1426.6340 μg equiv · h/g
same,AUCinf—obs,Liver,1435.9700 μg equiv · h/g
same,Tmax,Liver,4 h
same,t1/2,"Liver, estimate (footnote a)",190.3 h
same,AUCall,Lung,53.1145 μg equiv · h/g
same,AUCinf—obs,Lung,39.9962 μg equiv · h/g
same,Tmax,Lung,8 h
same,t1/2,Lung,93.0 h
same,AUCall,Lymph Node,85.04 μg equiv · h/g
same,AUCinf—obs,Lymph Node,57.7701 μg equiv · h/g
same,Tmax,Lymph Node,8 h
same,t1/2,"Lymph Node, estimate (footnote a)",86.4 h
same,AUCall,Pancreas,10.3720 μg equiv · h/g
same,AUCinf—obs,Pancreas,12.7271 μg equiv · h/g
same,Tmax,Pancreas,4 h
same,t1/2,Pancreas,62.1 h
same,AUCall,Pituitary Gland,30.5073 μg equiv · h/g
same,AUCinf—obs,Pituitary Gland,22.8331 μg equiv · h/g
same,Tmax,Pituitary Gland,4 h
same,t1/2,Pituitary Gland,106.2 h
same,AUCall,Prostate Gland,7.6578 μg equiv · h/g
same,AUCinf—obs,Prostate Gland,11.0471 μg equiv · h/g
same,Tmax,Prostate Gland,4 h
same,t1/2,Prostate Gland,70.1 h
same,AUCall,Salivary Gland,9.1933 μg equiv · h/g
same,AUCinf—obs,Salivary Gland,12.3800 μg equiv · h/g
same,Tmax,Salivary Gland,8 h
same,t1/2,"Salivary Gland, estimate (footnote a)",67.4 h
same,AUCall,Seminal Vesicles,50.2500 μg equiv · h/g
same,AUCinf—obs,Seminal Vesicles,34.9600 μg equiv · h/g
same,Tmax,Seminal Vesicles,1 h
same,t1/2,Seminal Vesicles,64.7 h
same,AUCall,Skeletal Muscle,1.3265 μg equiv · h/g
same,Tmax,Skeletal Muscle,8 h
same,AUCall,Skin (non-pigmented),14.0275 μg equiv · h/g
same,AUCinf—obs,Skin (non-pigmented),20.6749 μg equiv · h/g
same,Tmax,Skin (non-pigmented),8 h
same,t1/2,"Skin (non-pigmented), estimate (footnote a)",93.7 h
same,AUCall,Skin (pigmented),17.0405 μg equiv · h/g
same,AUCinf—obs,Skin (pigmented),21.3144 μg equiv · h/g
same,Tmax,Skin (pigmented),8 h
same,t1/2,"Skin (pigmented), estimate (footnote a)",63.4 h
same,AUCinf—obs,Small Intestine,9585.0880 μg equiv · h/g
same,Tmax,Small Intestine,4 h
same,t1/2,Small Intestine,98.1 h
same,AUCall,"Small Intestine, 15 mg/kg",9575.1810 μg equiv · h/g
same,AUCall,Spinal Cord,0.1110 μg equiv · h/g
same,Tmax,Spinal Cord,4 h
same,AUCall,Spleen,172.2208 μg equiv · h/g
same,AUCinf—obs,Spleen,125.7566 μg equiv · h/g
same,Tmax,Spleen,24 h
same,t1/2,Spleen,115.4 h
same,AUCall,Stomach (mucosa),90.7575 μg equiv · h/g
same,AUCinf—obs,Stomach (mucosa),80.6917 μg equiv · h/g
same,Tmax,Stomach (mucosa),2 h
same,t1/2,Stomach (mucosa),66.8 h
same,AUCall,Testis,30.3920 μg equiv · h/g
same,AUCinf—obs,Testis,21.7757 μg equiv · h/g
same,Tmax,Testis,8 h
same,t1/2,"Testis, estimate (footnote a)",87.2 h
same,AUCall,Thymus,12.0843 μg equiv · h/g
same,AUCinf—obs,Thymus,20.6983 μg equiv · h/g
same,Tmax,Thymus,8 h
same,t1/2,"Thymus, estimate (footnote a)",96.9 h
same,AUCall,Thyroid,31.3395 μg equiv · h/g
same,AUCinf—obs,Thyroid,21.8086 μg equiv · h/g
same,Tmax,Thyroid,4 h
same,t1/2,Thyroid,59.0 h
same,AUCall,Urinary Bladder,111.2445 μg equiv · h/g
same,AUCinf—obs,Urinary Bladder,91.1627 μg equiv · h/g
same,Tmax,Urinary Bladder,8 h
same,t1/2,Urinary Bladder,49.7 h
